Results on one molecule are retold here after patent publication US5326788A, “Biological fluid purification system” (priority 1992, dated 1994).

One assay has as its system HIV-1. Briefly: Syncytia assay, H9 cells infected with IIIb isolate of HIV co-cultured with Supt-1 cells. The format is cell-based. The note with it: 24 hours. As to the method:
(§1) In order to assess the effects of Hy and Ps on the ability of HIV to form syncytia, the following experiments were performed. For the analysis of HIV-1, an entry syncytia assay was performed by co-culturing H9 cells (described in Popovic, M. et al. Science 224: 497-500, 1984) infected with the IIIb isolate of HIV with uninfected Supt-1 cells (Walker, B. D. et al. Proc. Nat. Acad. Sci. (USA) 84: 8120-8124, 1987) as the target cell. HIV-2 was tested using HUT78 cells (obtained from the National Institute of Health by reference to Depository Catalog, Reagent Program, Bethesda, Md.) infected with the ROD-2 isolate of HIV-2 co-cultured with uninfected H9 target cells. The infected cells were plated in 96 well plates (10^4 cells per well in RPM1 1640 medium with 10% fetal calf serum) and incubated with or without dilutions of Ps or Hy for 30 minutes at 37° C. 1×10^5 target cells were then added per well and the number of syncytia were quantitatively and qualitatively determined after 24 hours.

A further assay deals with HIV-1 env. Briefly: Syncytia assay, cell line expressing only envelope proteins of HIV-1 IIIb with Supt-1 cells. The class given is cell-based. The note with it: for syncytia score (number 0-4, size S/M/L): 24 hours. As to the method: as §1
Also tested in a syncytia assay was a constructed cell line expressing only the envelope proteins of HIV-1 type IIIb isolate (Walker, B. D. et al., supra). These cells, designated HIV-1 env in Table 6, were treated with the indicated concentrations of Ps or Hy and incubated with uninfected Supt-1 target cells as above.

Another assay concerns HIV. Briefly: Inactivation of HIV from blood of sero-positive patient, reverse transcriptase activity after culture with H9 cells. The format is cell-based, Human Immunodeficiency Virus (HIV). As to the method: In order to show the effectiveness of the compounds of the present invention in the inactivation of HIV, blood was obtained from an HIV sero-positive patient and treated with hypericin and pseudohypericin at various concentrations for 1 hour at 37° C. and incubated with uninfected H9 cells in culture. Thereafter, reverse transcriptase enzymatic activity was determined as disclosed in U.S. patent application Ser. Nos. 084,008 and 172,064 filed Aug. 10, 1987 and Mar. 23, 1988, respectively.
In FIG. 1, open squares represent hypericin-treated and pluses represent pseudohypericin treated HIV. […] Inactivation of the reverse transcriptase activity of the virions was not a result of a direct inhibition of reverse transcriptase activity per se, as incubation of either compound directly with purified reverse transcriptase from either avian myeloblastosis virus or murine leukemia virus had no effect on enzyme activity. Furthermore, aliquots of HIV derived from these H9 cell cultures lost the ability to replicate in culture when exposed to as little as 0.77 micrograms/ml of hypericin.

As for `Cc1cc(O)c2c(=O)c3c(O)cc(O)c4c5c(O)cc(O)c6c(=O)c7c(O)cc(C)c8c1c2c(c34)c(c78)c65` [hypericin], the “syncytia score (number 0-4, size S/M/L)” value was found to be 4 L with HIV-1 (7 nanograms); 4 L in the assay with HIV-1 (14 nanograms); 3 L with HIV-1 (28 nanograms); 0 with HIV-1 (56 nanograms); 0 in the assay on HIV-1 (112 nanograms); 0 with HIV-1 (225 nanograms). Further, the “syncytia score (number 0-4, size S/M/L)” value is 0 in the assay on HIV-1 (450 nanograms); 0 in the assay on HIV-1 (900 nanograms); 0 in the assay with HIV-1 (1800 nanograms); 4 L in the assay on HIV-1 env (7 nanograms); 4 L with HIV-1 env (14 nanograms); 4 L in the assay on HIV-1 env (28 nanograms). In addition, the “syncytia score (number 0-4, size S/M/L)” value is 4 L with HIV-1 env (56 nanograms); 3 M in the assay with HIV-1 env (112 nanograms); 0 in the assay with HIV-1 env (225 nanograms); 0 in the assay on HIV-1 env (450 nanograms); 0 with HIV-1 env (900 nanograms); 0 with HIV-1 env (1800 nanograms). Also, in the assay on HIV-1 env (HIV-1 env cells and live virus assays), the “inhibition of the viral entry process (comparison)” value is reported as “more effective than pseudohypericin”. Further, the “concentration giving complete inactivation of HIV (no reverse transcriptase detected)” value in the assay with HIV (1 hour at 37° C., H9 cells) is given as 2.5 micrograms/ml. Further, the IC100 in the assay on HIV (Human immunodeficiency virus 1, H9, 1 h, read-out: concentration giving complete inactivation of HIV (no reverse transcriptase detected), 1 hour at 37° C., H9 cells) is more than 2.5 µg/mL.
